# Values quoted from earlier work as cited in patent US20260138960A1, “A PROCESS FOR THE PREPARATION OF CRYSTALLINE FORM OF TAFAMIDIS” (BIOPHORE INDIA PHARMACEUTICALS PVT. LTD, priority 2022, published 2026).
# Settings: poorly soluble, but permeate biological membranes well
row,Compound,biopharmaceutical classification system (BCS) class
1,CNC[C@H](O)[C@@H](O)[C@H](O)[C@H](O)CO.O=C(O)c1ccc2nc(-c3cc(Cl)cc(Cl)c3)oc2c1 [Tafamidis meglumine],class II
2,"O=C(O)c1ccc2nc(-c3cc(Cl)cc(Cl)c3)oc2c1 [Tafamidis, 2-(3,5-dichlorophenyl)-1,3-benzoxazole-6-carboxylic acid]",class II
